Test results taken from patent US7410975B2, “Small molecule toll-like receptor (TLR) antagonists” (Coley Pharmaceutical Group, Inc., priority 2003, dated 2008).
Where a name gives a salt, the structure may show the parent alone.

Each compound was assayed against T1, human TLR8 (hTLR8) (Homo sapiens, UniProt Q9NR97) (assay: Antagonist screen, hTLR8-NFκB-293 cells, NF-κB-luciferase reporter, with EC50 of R848). Conditions: compound at 0.5, 5, 50 μg/ml; EC50 concentration of R848; 16 h; NF-κB-luciferase.
T1 construct: expressed in transfected cells
T1 sequence (Q9NR97 27-1041): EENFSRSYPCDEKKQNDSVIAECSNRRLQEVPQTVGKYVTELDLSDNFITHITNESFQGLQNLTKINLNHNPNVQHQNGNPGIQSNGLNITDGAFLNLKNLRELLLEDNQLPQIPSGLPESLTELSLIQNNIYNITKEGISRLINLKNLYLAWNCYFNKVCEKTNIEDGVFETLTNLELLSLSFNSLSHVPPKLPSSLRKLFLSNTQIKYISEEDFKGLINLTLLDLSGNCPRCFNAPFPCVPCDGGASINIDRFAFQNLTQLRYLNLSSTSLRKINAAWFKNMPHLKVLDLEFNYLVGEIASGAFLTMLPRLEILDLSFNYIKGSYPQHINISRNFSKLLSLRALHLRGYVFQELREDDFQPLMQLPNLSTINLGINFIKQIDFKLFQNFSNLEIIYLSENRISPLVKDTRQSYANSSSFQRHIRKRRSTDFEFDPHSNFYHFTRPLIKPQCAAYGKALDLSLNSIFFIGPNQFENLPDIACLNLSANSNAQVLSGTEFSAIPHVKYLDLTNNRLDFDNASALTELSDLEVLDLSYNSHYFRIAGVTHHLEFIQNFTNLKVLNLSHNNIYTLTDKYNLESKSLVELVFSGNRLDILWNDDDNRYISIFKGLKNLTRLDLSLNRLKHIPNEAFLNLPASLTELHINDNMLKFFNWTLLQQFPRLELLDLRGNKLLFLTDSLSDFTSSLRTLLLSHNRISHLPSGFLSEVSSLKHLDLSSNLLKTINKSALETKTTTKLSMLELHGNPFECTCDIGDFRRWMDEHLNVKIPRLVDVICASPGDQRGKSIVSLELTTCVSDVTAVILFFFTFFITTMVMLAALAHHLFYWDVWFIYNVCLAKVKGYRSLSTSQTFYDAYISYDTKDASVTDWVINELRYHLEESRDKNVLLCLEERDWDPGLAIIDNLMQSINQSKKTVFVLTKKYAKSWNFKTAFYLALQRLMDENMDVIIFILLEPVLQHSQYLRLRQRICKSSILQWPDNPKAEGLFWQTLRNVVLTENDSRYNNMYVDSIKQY
Assay type: cell-based

Structure (SMILES)	hTLR8 (inhibitory effect, antagonist score)
CN1CCc2cccc3c2[C@H]1Cc1ccc(O)c(O)c1-3.Cl [compound 101, Apomorphinehydrochloride (R, —)]	11 (compounds for which there was clear down regulation only at 50 μg/ml)
CC(C)(C)c1ccc(C(O)CCCN2CCC(C(O)(c3ccccc3)c3ccccc3)CC2)cc1 (stereo not drawn) [compound 138, Terfenadine]	11 (compounds for which there was clear down regulation only at 50 μg/ml)
CN(C)C(=O)C(CCN1CCC(O)(c2ccc(Cl)cc2)CC1)(c1ccccc1)c1ccccc1 [compound 144, Loperamidehydrochloride]	11 (compounds for which there was clear down regulation only at 50 μg/ml)
COc1cc2c(cc1O)C[C@H]1c3c(cc(O)c(OC)c3-2)CCN1C [compound 600, Boldine]	— (compounds for which there was no clear down regulation even at 50 μg/ml)
CN1CCc2cc3c(c4c2C1Cc1ccccc1-4)OCO3.Cl (stereo not drawn) [compound 669, Remerine hydrochloride]	— (compounds for which there was no clear down regulation even at 50 μg/ml)
COc1cc2nc(N3CCN(C(=O)C4CCCO4)CC3)nc(N)c2cc1OC.Cl (stereo not drawn) [compound 751, Terazosin hydrochloride]	— (compounds for which there was no clear down regulation even at 50 μg/ml)
COc1cc2nc(N3CCN(C(=O)C4COc5ccccc5O4)CC3)nc(N)c2cc1OC.CS(=O)(=O)O (stereo not drawn) [compound 858, Doxazosin mesylate]	— (compounds for which there was no clear down regulation even at 50 μg/ml)
CCN(CC)CCCC(C)Nc1nc(/C=C/c2ccc(Cl)cc2)nc2cc3ccccc3cc12 (stereo not drawn) [compound 2000]	11 (compounds for which there was clear down regulation only at 50 μg/ml)

Same assay, conditions: hTLR8-NFκB-293 cells, with EC50 of R848; compound at 0.5, 5 and 50 μg/ml

Structure (SMILES)	hTLR8 (inhibitory effect)
COc1cc2cc3c4cc(OC)c(OC)cc4cc[n+]3c(C)c2cc1OC [compound 431, Coralyne chloridehydrate]	— (compounds for which there was no clear down regulation even at 50 μg/ml)
COc1ccc(Cc2nccc3cc(OC)c(OC)cc23)cc1OC.Cl [compound 583, Papaverinehydrochloride]	— (compounds for which there was no clear down regulation even at 50 μg/ml)
COc1ccc2cc3[n+](cc2c1OC)CCc1cc2c(cc1-3)OCO2.[Cl-] [compound 586, Berberine chloride]	12 (compounds for which there was clear down regulation at 5 μg/ml and 50 μg/ml)
CC[N+](C)(CC)CCC[n+]1c(-c2ccccc2)c2cc(N)ccc2c2ccc(N)cc21.[I-].[I-] [compound 792, Propidium iodide]	— (compounds for which there was no clear down regulation even at 50 μg/ml)
CN(C)CCN(Cc1ccc(Cl)cc1)c1ccccn1.Cl [compound 807, Chloro-pyraminehydrochloride]	— (compounds for which there was no clear down regulation even at 50 μg/ml)
CCOc1ccc(Cc2nccc3cc(OCC)c(OCC)cc23)cc1OCC.Cl [compound 830, Ethaverinehydrochloride]	11 (compounds for which there was clear down regulation only at 50 μg/ml)
O=c1c2c(nc(NCCO)n1-c1ccccc1)-c1ccccc1CC21CCCC1 [compound 891]	— (compounds for which there was no clear down regulation even at 50 μg/ml)
O=c1c2c(nc(NCCO)n1Cc1ccccc1)-c1ccccc1CC21CCCC1 [compound 926]	11 (compounds for which there was clear down regulation only at 50 μg/ml)
CN1CCc2c1nc1ccccc1c2N [compound 990, 1-Methyl-2,3-dihydro-1H-pyrrolo[2,3-b]quinolin-4-ylamine]	— (compounds for which there was no clear down regulation even at 50 μg/ml)
CN1CCc2c1nc1ccccc1c2NC(=O)CN1CCCCCC1 [compound 1003]	— (compounds for which there was no clear down regulation even at 50 μg/ml)
Cc1ccc2nc3c(c(N)c2c1)CCN3C [compound 1091, 1,6-Dimethyl-2,3-dihydro-1H-pyrrolo[2,3-b]quinolin-4-ylamine]	11 (compounds for which there was clear down regulation only at 50 μg/ml)
Cc1ccc(-n2c(NCCO)nc3c(c2=O)C2(CCCCC2)Cc2ccccc2-3)cc1 [compound 1137]	11 (compounds for which there was clear down regulation only at 50 μg/ml)
CN1CCc2c1nc1ccc(Br)cc1c2N [compound 1142, 6-Bromo-1-methyl-2,3-dihydro-1H-pyrrolo[2,3-b]quinolin-4-ylamine]	11 (compounds for which there was clear down regulation only at 50 μg/ml)
O=C1c2ccc(S(=O)(=O)c3ccc4c(c3)C(=O)N(c3ccccn3)C4=O)cc2C(=O)N1c1ccccn1 [compound 1163]	11 (compounds for which there was clear down regulation only at 50 μg/ml)
CN1CCCCc2c1nc1ccccc1c2N [compound 1185, 1-Methyl-2,3,4,5-tetrahydro-1H-azepino[2,3-b]quinolin-6-ylamine]	— (compounds for which there was no clear down regulation even at 50 μg/ml)
CN1CCc2c1nc1ccccc1c2NC(=O)CN1CCN(c2ccccc2)CC1 [compound 1212]	— (compounds for which there was no clear down regulation even at 50 μg/ml)
Cn1c(NN)nc2c(c1=O)C1(CCCC1)Cc1ccccc1-2 [compound 1213]	— (compounds for which there was no clear down regulation even at 50 μg/ml)
Nc1c2c(nc3ccccc13)N(Cc1ccccc1)CC2 [compound 1217, 1-Benzyl-2,3-dihydro-1H-pyrrolo[2,3-b]quinolin-4-ylamine]	11 (compounds for which there was clear down regulation only at 50 μg/ml)
CCCCCCN(CCCCCC)CC(=O)Nc1c2c(nc3ccccc13)N(C)CC2 [compound 1224]	12 (compounds for which there was clear down regulation at 5 μg/ml and 50 μg/ml)
O=C(CN1CCCC1)Nc1c2c(nc3ccccc13)N(c1ccccc1)CC2 [compound 1244]	11 (compounds for which there was clear down regulation only at 50 μg/ml)
NNc1nc2c(c(=O)n1C1CCCC1)C1(CCCC1)Cc1ccccc1-2 [compound 1248]	11 (compounds for which there was clear down regulation only at 50 μg/ml)
NNc1nc2c(c(=O)n1-c1ccccc1)C1(CCCC1)Cc1ccccc1-2 [compound 1320]	— (compounds for which there was no clear down regulation even at 50 μg/ml)
O=c1[nH]c(NCCO)nc2c1C1(CCCC1)Cc1ccccc1-2 [compound 1322]	— (compounds for which there was no clear down regulation even at 50 μg/ml)
CCCCCCCCCCCC(=O)Nc1c2c(nc3ccccc13)N(C)CC2 [compound 1334]	— (compounds for which there was no clear down regulation even at 50 μg/ml)
O=C1c2ccc(Oc3ccc(S(=O)(=O)c4ccc(Oc5ccc6c(c5)C(=O)N(c5ccccn5)C6=O)cc4)cc3)cc2C(=O)N1c1ccccn1 [compound 1367]	11 (compounds for which there was clear down regulation only at 50 μg/ml)
